{"source": "ChEMBL document CHEMBL6078637", "about": "“Cyclic Diguanylate G-Quadruplex Inducer-Quorum Sensing Inhibitor Hybrids as Bifunctional Anti-biofilm and Anti-virulence Agents Against Pseudomonas aeruginosa” (J Med Chem, 2024)", "key": {"Pseudomonas aeruginosa [1]": {"system": "Pseudomonas aeruginosa", "test": "Antibacterial activity against Pseudomonas aeruginosa PAO1 incubated for 24 hrs by absorbance based assay", "format": "functional"}, "[2]": {"test": "Inhibition of quorum sensing system in Pseudomonas aeruginosa PAO1 harboring mini-ctx-lasB-lacZ at 10 uM measured after 16 hrs by ONPG test relative to control"}, "Pseudomonas aeruginosa [3]": {"system": "Pseudomonas aeruginosa", "test": "Antibiofilm activity against Pseudomonas aeruginosa PAO1 harboring wspF mutant assessed as inhibition rate at 1.25 uM incubated for 24 hrs by absorbance based assay relative to control", "format": "functional"}, "Pseudomonas aeruginosa [4]": {"system": "Pseudomonas aeruginosa", "test": "Antibiofilm activity against Pseudomonas aeruginosa PAO1 harboring wspF mutant assessed as inhibition rate at 10 uM incubated for 24 hrs by absorbance based assay relative to control", "format": "functional"}}}
{"smiles": "C[n+]1c(/C=C/c2cccc3c2CCO3)ccc2ccccc21", "values": [{"measurement": "MIC", "setting": "Pseudomonas aeruginosa [1]", "result": "> 128", "unit": "µM"}, {"measurement": "inhibition", "setting": "[2]", "result": 9.4, "unit": "%"}]}
{"smiles": "C[n+]1c(/C=C/c2c[nH]c3ccc(Br)cc23)ccc2ccccc21", "values": [{"measurement": "MIC", "setting": "Pseudomonas aeruginosa [1]", "result": "> 128", "unit": "µM"}, {"measurement": "inhibition", "setting": "[2]", "result": 2.52, "unit": "%"}]}
{"smiles": "Cc1cc(=O)c(O)c(/C=C/c2sc3ccccc3[n+]2C)o1", "values": [{"measurement": "MIC", "setting": "Pseudomonas aeruginosa [1]", "result": "> 128", "unit": "µM"}, {"measurement": "inhibition", "setting": "[2]", "result": 7.78, "unit": "%"}]}
{"smiles": "C[n+]1c(/C=C/c2ccc3c(c2)CCO3)sc2ccccc21", "values": [{"measurement": "MIC", "setting": "Pseudomonas aeruginosa [1]", "result": "> 128", "unit": "µM"}, {"measurement": "inhibition", "setting": "[2]", "result": 3.6, "unit": "%"}]}
{"smiles": "C[n+]1c(/C=C/c2cscn2)ccc2ccccc21", "values": [{"measurement": "MIC", "setting": "Pseudomonas aeruginosa [1]", "result": "> 128", "unit": "µM"}, {"measurement": "inhibition", "setting": "[2]", "result": 4.55, "unit": "%"}]}
{"smiles": "C[n+]1c(/C=C/c2cccc3ocnc23)ccc2ccccc21", "values": [{"measurement": "MIC", "setting": "Pseudomonas aeruginosa [1]", "result": "> 128", "unit": "µM"}, {"measurement": "inhibition", "setting": "[2]", "result": 2.91, "unit": "%"}]}
{"smiles": "C[n+]1c(/C=C/c2ccc3ccc(=O)oc3c2)sc2ccccc21", "values": [{"measurement": "MIC", "setting": "Pseudomonas aeruginosa [1]", "result": "> 128", "unit": "µM"}, {"measurement": "inhibition", "setting": "[2]", "result": 2.42, "unit": "%"}]}
{"smiles": "C[n+]1c(/C=C/c2coc3ccccc3c2=O)sc2ccccc21", "values": [{"measurement": "MIC", "setting": "Pseudomonas aeruginosa [1]", "result": "> 128", "unit": "µM"}, {"measurement": "inhibition", "setting": "[2]", "result": 7.3, "unit": "%"}]}
{"smiles": "C[n+]1c(/C=C/c2cc3ccccc3[nH]2)sc2ccccc21", "values": [{"measurement": "MIC", "setting": "Pseudomonas aeruginosa [1]", "result": "> 128", "unit": "µM"}, {"measurement": "inhibition", "setting": "[2]", "result": 2.23, "unit": "%"}]}
{"smiles": "C[n+]1c(/C=C/c2c[nH]c3cc(Cl)ccc23)ccc2ccccc21", "values": [{"measurement": "MIC", "setting": "Pseudomonas aeruginosa [1]", "result": "> 128", "unit": "µM"}, {"measurement": "inhibition", "setting": "[2]", "result": 3.02, "unit": "%"}]}
{"smiles": "Cc1cc(=O)c(O)c(/C=C/c2ccc3ccccc3[n+]2C)o1", "values": [{"measurement": "MIC", "setting": "Pseudomonas aeruginosa [1]", "result": "> 128", "unit": "µM"}, {"measurement": "inhibition", "setting": "[2]", "result": 4.86, "unit": "%"}]}
{"smiles": "C[n+]1c(/C=C/c2c[nH]c3ccc([N+](=O)[O-])cc23)ccc2ccccc21", "values": [{"measurement": "MIC", "setting": "Pseudomonas aeruginosa [1]", "result": "> 128", "unit": "µM"}, {"measurement": "inhibition", "setting": "[2]", "result": 4.62, "unit": "%"}]}
{"smiles": "C[n+]1c(/C=C/c2cc(=O)c(O)co2)sc2ccccc21", "values": [{"measurement": "MIC", "setting": "Pseudomonas aeruginosa [1]", "result": "> 128", "unit": "µM"}, {"measurement": "inhibition", "setting": "[2]", "result": 4.1, "unit": "%"}]}
{"smiles": "C[n+]1c(/C=C/c2cscn2)sc2ccccc21", "values": [{"measurement": "MIC", "setting": "Pseudomonas aeruginosa [1]", "result": "> 128", "unit": "µM"}, {"measurement": "inhibition", "setting": "[2]", "result": 3.65, "unit": "%"}]}
{"smiles": "C[n+]1c(/C=C/c2ccc3nc[nH]c3c2)sc2ccccc21", "values": [{"measurement": "MIC", "setting": "Pseudomonas aeruginosa [1]", "result": "> 128", "unit": "µM"}, {"measurement": "inhibition", "setting": "[2]", "result": 3.2, "unit": "%"}]}
{"smiles": "COc1ccc2[nH]cc(/C=C/c3ccc4ccccc4[n+]3C)c2c1", "values": [{"measurement": "MIC", "setting": "Pseudomonas aeruginosa [1]", "result": "> 128", "unit": "µM"}, {"measurement": "inhibition", "setting": "[2]", "result": 16.6, "unit": "%"}, {"measurement": "inhibition at 1.25 µM", "setting": "Pseudomonas aeruginosa [3]", "result": "~21", "unit": "%"}]}
{"smiles": "C[n+]1c(/C=C/c2ccc3ccc(=O)oc3c2)ccc2ccccc21", "values": [{"measurement": "MIC", "setting": "Pseudomonas aeruginosa [1]", "result": "> 128", "unit": "µM"}, {"measurement": "inhibition", "setting": "[2]", "result": 2.74, "unit": "%"}]}
{"smiles": "C[n+]1c(/C=C/c2c[nH]c3ccc(O)cc23)ccc2ccccc21", "values": [{"measurement": "MIC", "setting": "Pseudomonas aeruginosa [1]", "result": "> 128", "unit": "µM"}, {"measurement": "inhibition", "setting": "[2]", "result": 7.32, "unit": "%"}]}
{"smiles": "CC[C@H]1OC(=O)[C@H](C)[C@@H](O[C@H]2C[C@@](C)(OC)[C@@H](O)[C@H](C)O2)[C@H](C)[C@@H](O[C@@H]2O[C@H](C)C[C@H](N(C)C)[C@H]2O)[C@](C)(O)C[C@@H](C)CN(C)[C@H](C)[C@@H](O)[C@]1(C)O", "note": "[AZITHROMYCIN]", "values": [{"measurement": "inhibition at 10 µM", "setting": "Pseudomonas aeruginosa [4]", "result": 43.9, "unit": "%"}]}
{"smiles": "COc1ccc2c(/C=C/c3ccc4ccccc4[n+]3C)c[nH]c2c1", "values": [{"measurement": "MIC", "setting": "Pseudomonas aeruginosa [1]", "result": "> 128", "unit": "µM"}, {"measurement": "inhibition", "setting": "[2]", "result": 17.9, "unit": "%"}, {"measurement": "inhibition at 1.25 µM", "setting": "Pseudomonas aeruginosa [3]", "result": "~21", "unit": "%"}]}
{"smiles": "Cc1ccc2c(/C=C/c3ccc4ccccc4[n+]3C)c[nH]c2c1", "values": [{"measurement": "MIC", "setting": "Pseudomonas aeruginosa [1]", "result": "> 128", "unit": "µM"}, {"measurement": "inhibition", "setting": "[2]", "result": 16.2, "unit": "%"}, {"measurement": "inhibition at 1.25 µM", "setting": "Pseudomonas aeruginosa [3]", "result": "~21", "unit": "%"}]}
{"smiles": "Cc1ccc2[nH]cc(/C=C/c3ccc4ccccc4[n+]3C)c2c1", "values": [{"measurement": "MIC", "setting": "Pseudomonas aeruginosa [1]", "result": "> 128", "unit": "µM"}, {"measurement": "inhibition", "setting": "[2]", "result": 17, "unit": "%"}, {"measurement": "inhibition at 1.25 µM", "setting": "Pseudomonas aeruginosa [3]", "result": "~21", "unit": "%"}]}
{"smiles": "C[n+]1c(/C=C/c2cc3ccccc3[nH]2)ccc2ccccc21", "values": [{"measurement": "MIC", "setting": "Pseudomonas aeruginosa [1]", "result": "> 128", "unit": "µM"}, {"measurement": "inhibition", "setting": "[2]", "result": 1.42, "unit": "%"}]}
{"smiles": "C[n+]1c(/C=C/c2c[nH]c3cc(Br)ccc23)ccc2ccccc21", "values": [{"measurement": "MIC", "setting": "Pseudomonas aeruginosa [1]", "result": "> 128", "unit": "µM"}, {"measurement": "inhibition", "setting": "[2]", "result": 0.5, "unit": "%"}, {"measurement": "inhibition at 1.25 µM", "setting": "Pseudomonas aeruginosa [3]", "result": "~21", "unit": "%"}]}
{"smiles": "C[n+]1c(/C=C/c2c[nH]c3ccc(Cl)cc23)ccc2ccccc21", "values": [{"measurement": "MIC", "setting": "Pseudomonas aeruginosa [1]", "result": "> 128", "unit": "µM"}, {"measurement": "inhibition", "setting": "[2]", "result": 4.53, "unit": "%"}]}
{"smiles": "C[n+]1c(/C=C/c2ccc3ocnc3c2)sc2ccccc21", "values": [{"measurement": "MIC", "setting": "Pseudomonas aeruginosa [1]", "result": "> 128", "unit": "µM"}, {"measurement": "inhibition", "setting": "[2]", "result": 1.14, "unit": "%"}]}
{"smiles": "C[n+]1c(/C=C/c2c[nH]c3cc(F)ccc23)ccc2ccccc21", "values": [{"measurement": "MIC", "setting": "Pseudomonas aeruginosa [1]", "result": "> 128", "unit": "µM"}, {"measurement": "inhibition", "setting": "[2]", "result": 9.14, "unit": "%"}, {"measurement": "inhibition at 1.25 µM", "setting": "Pseudomonas aeruginosa [3]", "result": "~21", "unit": "%"}]}
{"smiles": "C[n+]1c(/C=C/c2c[nH]c3ccccc23)sc2ccccc21", "values": [{"measurement": "MIC", "setting": "Pseudomonas aeruginosa [1]", "result": "> 128", "unit": "µM"}, {"measurement": "inhibition", "setting": "[2]", "result": 20.9, "unit": "%"}, {"measurement": "inhibition at 1.25 µM", "setting": "Pseudomonas aeruginosa [3]", "result": "~21", "unit": "%"}]}
{"smiles": "C[n+]1c(/C=C/c2coc3ccccc3c2=O)ccc2ccccc21", "values": [{"measurement": "MIC", "setting": "Pseudomonas aeruginosa [1]", "result": "> 128", "unit": "µM"}, {"measurement": "inhibition", "setting": "[2]", "result": 1.21, "unit": "%"}]}
{"smiles": "C[n+]1c(/C=C/c2cc(=O)c(O)co2)ccc2ccccc21", "values": [{"measurement": "MIC", "setting": "Pseudomonas aeruginosa [1]", "result": "> 128", "unit": "µM"}, {"measurement": "inhibition", "setting": "[2]", "result": 0.45, "unit": "%"}]}
{"smiles": "C[n+]1c(/C=C/c2ccc3nc[nH]c3c2)ccc2ccccc21", "values": [{"measurement": "MIC", "setting": "Pseudomonas aeruginosa [1]", "result": "> 128", "unit": "µM"}, {"measurement": "inhibition", "setting": "[2]", "result": 1.69, "unit": "%"}]}
